The test system of assay [1] is cytoplasmic RNA and nucleoli in SiHa cells. The assay is described as follows: Staining live SiHa cells with CAPY-AP, confocal laser scanning microscopy. The settings on record: 5 μM CAPY-AP, 30 min, 488 nm laser, green channel 500-600 nm. The format is cell-based. The procedure:
Obtaining method: the SiHa cells are incubated with CAPY-AP for 30 min, and then the cells are irradiated with a 488 nm laser under a confocal laser scanning microscope to obtain micrographs. FIG. 1a is the image of green channel at 500-600 nm from CAPY-AP excited by the 488 nm laser. FIG. 1B is a differential interference contrast (DIC) micrograph scanned by a bright field laser. FIG. 1c is the merge image of FIG. 1a and FIG. 1b.
SiHa cells were cultured in adherent conditions in a culture media containing 10% fetal bovine serum and incubated in a 37° C. and 5% CO2 saturated humidity incubator. The culture media was replaced every 2-3 days for passage once. […]
First, DMSO solution of a 5 mM CAPY-AP was prepared as a stock solution. […] After staining, the cover glass with cells was taken out, excess probes were washed off, the cover glass with the cell growth side facing down covers a glass slide, and the staining locations, fluorescence distribution and brightness changes of the cells were observed under a confocal laser scanning microscope (the cells were irradiated with a 488 nm laser).

The next assay has as its system RNA in SiHa cells. Put plainly: RNase digestion assay: staining of RNase-treated fixed SiHa cells with CAPY-AP. The format is cell-based. The settings on record: RNase 25 μg/mL 2 hours, then 5 μM CAPY-AP 30 min, 488 nm laser, green channel 500-600 nm. An excerpt: Obtaining method: the fixed SiHa cells treated with RNase and then stained with CAPY-AP. Under the confocal laser scanning microscope, the cells are irradiated with the 488 nm laser to obtain micrographs. FIG. 2a is the image of a green channel at 500-600 nm from CAPY-AP excited by the 488 nm laser. FIG. 2b is a differential interference contrast (DIC) micrograph scanned by a bright field laser. FIG. 2c is the merge image of FIG. 2a and FIG. 2b.
Preparation of fixed cells: first, the cover glass covered with the SiHa cells prepared in Example 2 was immersed in a 4% paraformaldehyde solution for 30 min, and then 0.5%
Triton X-100 was used for permeation at room temperature for 2 min to obtain the fixed cells.
A group of the above fixed cells was taken out and digested in an incubator for 2 hours after RNase with a 25 μg/mL concentration was added, then washed with PBS 3 times and stained with a 5 μM CAPY-AP in a CO2 incubator for 30 min. The cover glass with stained cells was taken out, excess dyes were washed off, the cover glass with a cell growth side facing down covers a glass slide, and the staining locations, fluorescence distribution and brightness changes of the cells were observed under a confocal laser scanning microscope (the cells were irradiated with a 488 nm laser) and recorded.

In assay [2] the test system is cytoplasmic RNA and nucleoli in human mammary cancer tissue and normal mammary tissue. Put plainly: Fluorescence staining of frozen sections of human mammary cancer tissue and its adjacent normal tissue.
From the text: Obtaining method: after the frozen sections of human mammary cancer tissue and its adjacent normal tissue are stained with CAPY-AP and Hoechst 33342, the tissue is irradiated with 488 nm and 405 nm lasers respectively under the confocal laser scanning microscope, and superposition images of two channels (blue channel: 420-450 nm, green channel: 500-600 nm) are obtained. The frozen sections of the same tissue are stained with H&E to obtain H&E staining images. Amongst, the enlarged images come from two box regions of fluorescent staining images of mammary cancer tissue.
(§1) The frozen sections of the mammary cancer tissue and its adjacent normal tissue from intraoperative pathological samples of breast cancer patients (Pathology No. 57977.18) were obtained from the department of pathology, Qilu Hospital of Shandong University. In order to stain, the frozen sections were immersed into a 10% EtOH PBS buffer solution with a 10 μM CAPY-AP and a 10 μM Hoechst 33342 for 10 min, and then observed under a confocal laser scanning microscope (the tissue was irradiated with 488 nm and 405 nm lasers respectively) to obtain fluorescence images. The fluorescence images were compared with the corresponding H&E images.
as §1, with “60551.18)” for “57977.18)”
as §1, with “61864.18)” for “57977.18)”

Where [3] appears, read: 10 μM CAPY-AP with 10 μM Hoechst 33342, 10% EtOH PBS, 10 min, 488 nm and 405 nm lasers.

In the case of `CCn1c2ccccc2c2cc(/C=C/c3cc[n+](CCCN)cc3)ccc21` [CAPY-AP, (E)-1-(3-aminopropyl)-4-(2-(9-ethyl-9H-carbazol-3-yl)vinyl)pyridine-1-ium dibromide], in assay [1], the “staining locations and fluorescence distribution in live SiHa cells (FIG. 1)” value was “obvious green light distribution in cytoplasmic and nucleolar areas”. For the same molecule, in the assay on RNA in SiHa cells, the “fluorescence of fixed SiHa cells after RNase treatment (FIG. 2)” value is “fluorescence in the nucleoli and cytoplasm is almost invisible”. In assay [2] (setting [3]), the “fluorescence distribution in frozen sections, Pathology No. 57977.18 (FIG. 3)” value is “obvious green light distribution in cytoplasmic and nucleolar areas, while no fluorescence exists in extracellular matrices”; the “imaging of cytoplasmic RNA and nucleoli in frozen sections, Pathology No. 60551.18 (FIG. 4)” value is “can specifically image the cytoplasmic RNA and nucleoli in the frozen sections of the human mammary pathological tissue”; the “imaging of cytoplasmic RNA and nucleoli in frozen sections, Pathology No. 61864.18 (FIG. 5)” value was “can specifically image the cytoplasmic RNA and nucleoli in the frozen sections of the human mammary pathological tissue”. For the same molecule, the “imaging of cytoplasmic RNA and nucleoli in frozen sections, summary of FIG. 3, FIG. 4 and FIG. 5” value in assay [2] (three pathology samples together, CAPY-AP and Hoechst 33342) is “can specifically image the cytoplasmic RNA and nucleoli in frozen sections of human mammary pathological tissue”.
